Consider two molecules from ChEMBL document CHEMBL1124452, “New sensitizers for photodynamic therapy: controlled synthesis of purpurins and their effect on normal tissue” (1989).

The subject of the experiment is Rattus norvegicus. Nature of the experiment: In vivo cytotoxicity to the FANFT-induced urothelial cell carcinoma transplanted onto Fischer CDF (F344/CrlBR) rats (Tumoricidal activity). The experiment is classed as functional.

Structures are written as SMILES.

In the case of `CCOC(=O)C1=Cc2c3nc(cc4nc(cc5[nH]c(cc6[nH]c2c(C)c6CC)c(C)c5CC)C(C)=C4CC)C(C)C13CC` (configuration not stated) [ETIOPURPURIN], the Therapeutic dose amounted to 2.5 mg/kg.
As for `CCOC(=O)C1=Cc2c3nc(cc4nc(cc5[nH]c(cc6[nH]c2c(CC)c6CC)c(CC)c5CC)C(CC)=C4CC)C(CC)C13CC` (configuration not stated) [OCTAETHYLPURPURIN], the Therapeutic dose was determined as 5 mg/kg.
